Values joined by “and” are separate entries in the source; they are usually repeats but may differ in a detail not shown here. Equal values may be shown once.
Columns and labels:
Test in all cases: Two-electrode voltage-clamp recordings, Xenopus oocytes
Type in all cases: cell-based
[1] = target: GluN1–1a/2BC1/2DC2 (Rattus norvegicus, UniProt P35439+Q00959+Q00960+Q62645, A876H/F846L/G856D/H848F/K857R/M851T/M860L/Q845K/R869K/V861L/V866F); conditions: at 10 μM; relative to control; isoform 1a
[2] = target: GluN1–1b/2BC1/2DC2 (Rattus norvegicus, UniProt P35439+Q00959+Q00960+Q62645, A876H/F846L/G856D/H848F/K857R/M851T/M860L/Q845K/R869K/V861L/V866F); conditions: at 10 μM; isoform 1b
[3] = target: GluN1–1b/2B (Rattus norvegicus, UniProt P35439+Q00960); conditions: at 10 μM; isoform 1b
[4] = target: GluN1–1b/2D (Rattus norvegicus, UniProt P35439+Q62645); conditions: at 10 μM; isoform 1b
[5] = target: GluN1–1a/2D (Rattus norvegicus, UniProt P35439+Q62645); conditions: at 10 μM; relative to control; isoform 1a
Chain of GluN1–1a/2D (Q62645 28-1323, other chains not shown): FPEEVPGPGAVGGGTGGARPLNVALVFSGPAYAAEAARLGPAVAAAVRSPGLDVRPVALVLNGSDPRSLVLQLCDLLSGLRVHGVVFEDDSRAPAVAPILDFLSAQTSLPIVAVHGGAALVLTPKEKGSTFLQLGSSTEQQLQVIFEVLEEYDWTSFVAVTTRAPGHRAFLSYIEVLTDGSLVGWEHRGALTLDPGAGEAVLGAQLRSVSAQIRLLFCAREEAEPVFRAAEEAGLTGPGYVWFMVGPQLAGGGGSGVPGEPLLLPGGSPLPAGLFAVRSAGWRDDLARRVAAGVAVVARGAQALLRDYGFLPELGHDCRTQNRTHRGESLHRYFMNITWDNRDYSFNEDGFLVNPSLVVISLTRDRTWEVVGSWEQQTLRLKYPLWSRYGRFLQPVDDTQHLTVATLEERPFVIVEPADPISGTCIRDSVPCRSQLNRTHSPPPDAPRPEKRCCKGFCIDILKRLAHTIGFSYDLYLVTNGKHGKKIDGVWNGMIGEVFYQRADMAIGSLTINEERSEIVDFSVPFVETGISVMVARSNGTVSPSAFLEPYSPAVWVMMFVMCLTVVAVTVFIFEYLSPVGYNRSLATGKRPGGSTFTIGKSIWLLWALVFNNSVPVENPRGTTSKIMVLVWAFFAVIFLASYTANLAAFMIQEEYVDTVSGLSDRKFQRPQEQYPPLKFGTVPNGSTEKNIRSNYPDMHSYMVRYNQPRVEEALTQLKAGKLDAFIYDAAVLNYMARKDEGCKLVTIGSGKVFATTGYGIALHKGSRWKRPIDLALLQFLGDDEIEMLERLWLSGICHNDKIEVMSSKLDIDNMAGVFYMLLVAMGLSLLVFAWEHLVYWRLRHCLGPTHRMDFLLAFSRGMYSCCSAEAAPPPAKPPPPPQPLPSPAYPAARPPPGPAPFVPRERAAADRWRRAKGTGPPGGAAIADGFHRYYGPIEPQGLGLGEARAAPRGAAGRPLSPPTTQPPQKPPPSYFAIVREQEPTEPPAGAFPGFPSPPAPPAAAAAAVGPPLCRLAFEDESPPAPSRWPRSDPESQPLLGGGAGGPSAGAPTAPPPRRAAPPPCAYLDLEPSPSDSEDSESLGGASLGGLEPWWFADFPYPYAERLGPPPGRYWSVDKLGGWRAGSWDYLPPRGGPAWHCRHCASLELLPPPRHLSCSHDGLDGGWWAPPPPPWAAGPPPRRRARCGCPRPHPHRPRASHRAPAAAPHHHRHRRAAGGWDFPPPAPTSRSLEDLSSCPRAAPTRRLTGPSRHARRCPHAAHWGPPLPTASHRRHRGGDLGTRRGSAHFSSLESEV

Chain of GluN1–1b/2D (Q62645 28-1323, other chains not shown): as above
Chain of GluN1–1b/2B (Q00960 27-1482, other chains not shown): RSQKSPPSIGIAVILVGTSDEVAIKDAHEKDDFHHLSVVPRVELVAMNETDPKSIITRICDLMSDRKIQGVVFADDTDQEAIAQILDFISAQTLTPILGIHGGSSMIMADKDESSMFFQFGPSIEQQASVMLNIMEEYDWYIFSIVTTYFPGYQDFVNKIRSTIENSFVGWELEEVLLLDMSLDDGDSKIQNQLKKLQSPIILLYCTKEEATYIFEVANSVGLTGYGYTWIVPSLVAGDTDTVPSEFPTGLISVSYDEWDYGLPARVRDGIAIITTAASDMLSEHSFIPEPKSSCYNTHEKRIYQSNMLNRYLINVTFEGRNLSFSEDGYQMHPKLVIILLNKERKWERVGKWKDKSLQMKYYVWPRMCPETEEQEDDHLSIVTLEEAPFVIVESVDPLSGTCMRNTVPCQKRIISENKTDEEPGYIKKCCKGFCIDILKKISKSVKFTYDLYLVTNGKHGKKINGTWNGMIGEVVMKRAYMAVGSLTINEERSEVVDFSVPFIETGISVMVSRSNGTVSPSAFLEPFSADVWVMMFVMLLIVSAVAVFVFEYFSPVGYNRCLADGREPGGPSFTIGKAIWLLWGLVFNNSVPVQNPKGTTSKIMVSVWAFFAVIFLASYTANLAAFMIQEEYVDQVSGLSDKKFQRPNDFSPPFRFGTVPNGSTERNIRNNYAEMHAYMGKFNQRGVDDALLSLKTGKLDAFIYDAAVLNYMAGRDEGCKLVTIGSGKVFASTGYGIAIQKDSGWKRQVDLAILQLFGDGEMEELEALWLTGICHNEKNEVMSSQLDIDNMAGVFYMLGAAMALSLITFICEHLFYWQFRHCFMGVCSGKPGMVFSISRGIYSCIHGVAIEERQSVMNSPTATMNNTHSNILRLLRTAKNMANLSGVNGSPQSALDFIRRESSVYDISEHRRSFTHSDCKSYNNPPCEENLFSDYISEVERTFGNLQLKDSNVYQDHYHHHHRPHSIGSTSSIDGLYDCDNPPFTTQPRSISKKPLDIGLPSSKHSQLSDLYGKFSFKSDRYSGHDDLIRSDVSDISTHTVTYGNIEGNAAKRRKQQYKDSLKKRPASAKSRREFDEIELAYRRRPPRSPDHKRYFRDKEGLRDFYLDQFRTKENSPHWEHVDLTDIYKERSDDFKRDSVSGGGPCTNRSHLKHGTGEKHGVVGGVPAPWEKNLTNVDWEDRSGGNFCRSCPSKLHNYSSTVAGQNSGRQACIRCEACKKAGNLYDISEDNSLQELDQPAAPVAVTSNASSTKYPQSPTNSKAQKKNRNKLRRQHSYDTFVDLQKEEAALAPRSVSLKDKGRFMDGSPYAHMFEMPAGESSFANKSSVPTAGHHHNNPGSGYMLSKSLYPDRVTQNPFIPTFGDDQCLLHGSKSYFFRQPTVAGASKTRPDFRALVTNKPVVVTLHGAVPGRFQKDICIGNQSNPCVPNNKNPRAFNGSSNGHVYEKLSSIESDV

Compound: COc1ccc(OCC2c3cc(OC)c(OC)cc3CCN2C(=O)c2cccc(Cl)c2)cc1 (centres unmarked) [CIQ]
- Relative Imax [1]: 139% and 139 ± 3%
- Relative Imax [2]: 115% and 115 ± 3%
- Relative Imax [3]: 91% and 91 ± 3%
- Relative Imax [4]: 197% and 197 ± 8%
- Relative Imax [5]: 227% and 227 ± 8%

From article PMC6858497 (The Journal of physiology, 2019)
